Consider four compounds from ChEMBL document CHEMBL1129551, “All-atom models for the non-nucleoside binding site of HIV-1 reverse transcriptase complexed with inhibitors: a 3D QSAR approach” (J Med Chem, 1996).

For the test, the target named is Human immunodeficiency virus type 1 reverse transcriptase (Human immunodeficiency virus 1, UniProt Q72547). The experiment in a line: Inhibitory activity against HIV-1 reverse transcriptase.
`CCN1c2ncccc2-c2ncc(C)n2-c2c(C)cc(=O)[nH]c21` gave an IC50 of 12.2 µM.

In the case of `CCN1c2ncccc2-c2nccn2-c2ccc(N3CC=CCC3)nc21`, the half-maximal inhibitory concentration (IC50) was found to be 3.9 µM.

Regarding `CCN1c2ncccc2-c2ncc(C)n2-c2ccc(N3CC=CCC3)nc21`, the IC50 turned out to be 2.7 µM.

`CCc1nc2n(c1C)-c1cccnc1N(CC)c1ncccc1-2` returned an IC50 of 5.63 µM.
